# Test results from ChEMBL document CHEMBL5705899 (Biochem J, 2014).
# Activity calls are given as the source filed them. The rule behind the calls is not given here.
# Columns and labels:
# [1] = biological target: Mitogen-activated protein kinase kinase kinase 9 (Homo sapiens) (UniProt P80192); test: (§1) Inhibition of recombinant human N-terminal GST-tagged MLK1 (132 to 413 residues) expressed in baculovirus infected Sf21 cells assessed as remaining activity at 1 uM using MBP as substrate incubated for 30 mins in presence of [gamma-33P]ATP by filter binding method relative to control
# [2] = biological target: Mitogen-activated protein kinase 13 (Homo sapiens) (UniProt O15264); test: Inhibition of recombinant human GST-tagged P38delta (1 to 365 residues) expressed in Escherichia coli assessed as remaining activity at 1 uM using MBP as substrate incubated for 30 mins in presence of [gamma-33P]ATP by filter binding method relative to control
# [3] = biological target: Dual specificity mitogen-activated protein kinase kinase 2 (Homo sapiens) (UniProt P36507); test: Inhibition of recombinant human N-terminal GST/C-terminal His6-tagged MKK2 (2 to 400 residues) expressed in Escherichia coli assessed as remaining activity at 1 uM using MBP as substrate incubated for 30 mins in presence of [gamma-33P]ATP by filter binding method relative to control
# [4] = biological target: Insulin receptor (Homo sapiens) (UniProt P06213); test: Inhibition of recombinant human N-terminal His6-tagged IR (1001 to 1382 residues) expressed in baculovirus infected Sf21 cells assessed as remaining activity at 1 uM using KKSRGDYMTMQIG as substrate incubated for 30 mins in presence of [gamma-33P]ATP by filter binding method relative to control
# [5] = biological target: Serine/threonine-protein kinase Chk2 (Homo sapiens) (UniProt O96017); test: Inhibition of recombinant human N-terminal GST/C-terminal His6-tagged CHK2 (5 to 543 residues) expressed in Escherichia coli assessed as remaining activity at 1 uM using CHKtide as substrate incubated for 30 mins in presence of [gamma-33P]ATP by filter binding method relative to control
# [6] = biological target: Ephrin type-A receptor 4 (Homo sapiens) (UniProt P54764); test: Inhibition of recombinant human N-terminal GST-tagged EPHA4 (570 to 986 residues) expressed in Escherichia coli assessed as remaining activity at 1 uM using Poly (Glu,Tyr) as substrate incubated for 30 mins in presence of [gamma-33P]ATP by filter binding method relative to control
# [7] = biological target: CDK9/cyclin T1 (Homo sapiens) (UniProt O60563+P50750); test: as §1, with “CDK9 (1” for “MLK1 (132”, “372 residues)/Cyclin T1 (1 to 726” for “413”, “YSPTSPSYSPTSPSYSPTSPKKK” for “MBP”
# [8] = biological target: Tyrosine-protein kinase Yes (Homo sapiens) (UniProt P07947); test: Inhibition of human YES at 1 uM using polyEY as substrate in presence of 33P-ATP by ProQinase assay
# [9] = biological target: Serine/threonine-protein kinase Chk1 (Homo sapiens) (UniProt O14757); test: Inhibition of human CHK1 at 1 uM using RBER-CHKtide as substrate in presence of 33P-ATP by ProQinase assay
# [10] = biological target: Ephrin type-B receptor 3 (Homo sapiens) (UniProt P54753); test: Inhibition of human EPHB3 at 1 uM using polyEY as substrate in presence of 33P-ATP by ProQinase assay
# [11] = biological target: Protein kinase C beta type (Homo sapiens) (UniProt P05771); test: Inhibition of human PKCbeta1 at 1 uM using 3xChocktide-PKC as substrate in presence of 33P-ATP by ProQinase assay
# [12] = biological target: Dual specificity tyrosine-phosphorylation-regulated kinase 1B (Homo sapiens) (UniProt Q9Y463); test: Inhibition of human DYRK1B at 1 uM using RBER-CHKtide as substrate in presence of 33P-ATP by ProQinase assay
# [13] = biological target: Serine/threonine-protein kinase VRK1 (Homo sapiens) (UniProt Q99986); test: Inhibition of human VRK1 at 1 uM using RBER-CHKtide as substrate in presence of 33P-ATP by ProQinase assay
# [14] = biological target: Serine/threonine-protein kinase WNK2 (Homo sapiens) (UniProt Q9Y3S1); test: Inhibition of human WNK2 at 1 uM using RBER-CHKtide as substrate in presence of 33P-ATP by ProQinase assay
# [15] = biological target: Vascular endothelial growth factor receptor 1 (Homo sapiens) (UniProt P17948); test: Inhibition of human VEGFR1 at 1 uM using polyEY as substrate in presence of 33P-ATP by ProQinase assay
# Sequence of Vascular endothelial growth factor receptor 1 (Homo sapiens) (P17948 whole entry): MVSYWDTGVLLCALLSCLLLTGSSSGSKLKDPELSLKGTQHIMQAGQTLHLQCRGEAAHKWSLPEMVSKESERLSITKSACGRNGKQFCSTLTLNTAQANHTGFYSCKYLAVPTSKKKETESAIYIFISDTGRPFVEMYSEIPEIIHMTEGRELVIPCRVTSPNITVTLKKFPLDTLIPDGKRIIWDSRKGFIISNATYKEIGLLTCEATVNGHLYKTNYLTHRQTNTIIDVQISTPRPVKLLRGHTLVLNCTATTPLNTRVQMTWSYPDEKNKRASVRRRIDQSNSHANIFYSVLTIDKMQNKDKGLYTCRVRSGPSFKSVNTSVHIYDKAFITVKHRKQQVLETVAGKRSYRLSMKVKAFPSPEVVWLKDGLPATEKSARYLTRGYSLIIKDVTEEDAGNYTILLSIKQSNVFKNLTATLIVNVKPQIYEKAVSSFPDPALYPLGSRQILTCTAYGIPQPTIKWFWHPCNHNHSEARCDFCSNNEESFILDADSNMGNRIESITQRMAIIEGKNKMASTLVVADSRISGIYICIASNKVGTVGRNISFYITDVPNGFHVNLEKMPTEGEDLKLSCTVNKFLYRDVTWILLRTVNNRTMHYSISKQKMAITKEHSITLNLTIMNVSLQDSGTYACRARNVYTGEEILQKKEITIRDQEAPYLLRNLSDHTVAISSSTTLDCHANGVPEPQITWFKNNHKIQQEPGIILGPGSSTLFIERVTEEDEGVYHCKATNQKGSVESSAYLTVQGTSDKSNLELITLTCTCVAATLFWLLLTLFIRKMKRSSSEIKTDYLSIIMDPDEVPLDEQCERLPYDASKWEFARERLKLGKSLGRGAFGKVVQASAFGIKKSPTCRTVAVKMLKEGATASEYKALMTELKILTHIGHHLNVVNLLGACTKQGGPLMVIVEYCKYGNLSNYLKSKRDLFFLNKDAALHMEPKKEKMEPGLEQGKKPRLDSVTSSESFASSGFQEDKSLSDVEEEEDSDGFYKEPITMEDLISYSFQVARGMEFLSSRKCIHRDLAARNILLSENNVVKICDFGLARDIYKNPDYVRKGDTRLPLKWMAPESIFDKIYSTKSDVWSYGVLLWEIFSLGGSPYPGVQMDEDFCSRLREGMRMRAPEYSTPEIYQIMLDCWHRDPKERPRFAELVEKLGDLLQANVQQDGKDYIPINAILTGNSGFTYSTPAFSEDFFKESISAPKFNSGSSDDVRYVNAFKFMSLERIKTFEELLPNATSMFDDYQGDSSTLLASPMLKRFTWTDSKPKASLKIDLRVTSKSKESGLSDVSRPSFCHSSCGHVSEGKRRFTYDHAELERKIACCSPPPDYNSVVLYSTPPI
# [16] = biological target: Serine/threonine-protein kinase Nek11 (Homo sapiens) (UniProt Q8NG66); test: Inhibition of human NEK11 at 1 uM using MBP as substrate in presence of 33P-ATP by ProQinase assay
# Sequence of Serine/threonine-protein kinase Nek11 (Homo sapiens) (Q8NG66 whole entry): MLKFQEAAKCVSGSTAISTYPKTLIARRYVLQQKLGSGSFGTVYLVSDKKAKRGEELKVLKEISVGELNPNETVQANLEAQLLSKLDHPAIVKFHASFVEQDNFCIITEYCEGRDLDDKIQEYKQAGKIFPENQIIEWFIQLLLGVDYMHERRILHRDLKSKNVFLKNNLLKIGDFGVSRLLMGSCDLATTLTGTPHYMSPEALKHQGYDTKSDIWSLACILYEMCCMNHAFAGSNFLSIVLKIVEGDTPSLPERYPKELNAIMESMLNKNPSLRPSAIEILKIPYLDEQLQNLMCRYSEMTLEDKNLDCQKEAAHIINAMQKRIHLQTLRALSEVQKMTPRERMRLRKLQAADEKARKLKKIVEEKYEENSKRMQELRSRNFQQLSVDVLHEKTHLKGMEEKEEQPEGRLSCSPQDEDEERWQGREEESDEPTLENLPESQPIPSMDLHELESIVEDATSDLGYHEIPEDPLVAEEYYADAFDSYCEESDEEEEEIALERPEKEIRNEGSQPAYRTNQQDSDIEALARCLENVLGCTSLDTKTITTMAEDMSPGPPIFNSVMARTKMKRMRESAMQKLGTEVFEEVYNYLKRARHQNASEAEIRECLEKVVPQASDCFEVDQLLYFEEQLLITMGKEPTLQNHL
# [17] = biological target: Serine/threonine-protein kinase DCLK2 (Homo sapiens) (UniProt Q8N568); test: Inhibition of human DCAMKL2 at 1 uM using RBER-CHKtide as substrate in presence of 33P-ATP by ProQinase assay
# Sequence of Serine/threonine-protein kinase DCLK2 (Homo sapiens) (Q8N568 whole entry): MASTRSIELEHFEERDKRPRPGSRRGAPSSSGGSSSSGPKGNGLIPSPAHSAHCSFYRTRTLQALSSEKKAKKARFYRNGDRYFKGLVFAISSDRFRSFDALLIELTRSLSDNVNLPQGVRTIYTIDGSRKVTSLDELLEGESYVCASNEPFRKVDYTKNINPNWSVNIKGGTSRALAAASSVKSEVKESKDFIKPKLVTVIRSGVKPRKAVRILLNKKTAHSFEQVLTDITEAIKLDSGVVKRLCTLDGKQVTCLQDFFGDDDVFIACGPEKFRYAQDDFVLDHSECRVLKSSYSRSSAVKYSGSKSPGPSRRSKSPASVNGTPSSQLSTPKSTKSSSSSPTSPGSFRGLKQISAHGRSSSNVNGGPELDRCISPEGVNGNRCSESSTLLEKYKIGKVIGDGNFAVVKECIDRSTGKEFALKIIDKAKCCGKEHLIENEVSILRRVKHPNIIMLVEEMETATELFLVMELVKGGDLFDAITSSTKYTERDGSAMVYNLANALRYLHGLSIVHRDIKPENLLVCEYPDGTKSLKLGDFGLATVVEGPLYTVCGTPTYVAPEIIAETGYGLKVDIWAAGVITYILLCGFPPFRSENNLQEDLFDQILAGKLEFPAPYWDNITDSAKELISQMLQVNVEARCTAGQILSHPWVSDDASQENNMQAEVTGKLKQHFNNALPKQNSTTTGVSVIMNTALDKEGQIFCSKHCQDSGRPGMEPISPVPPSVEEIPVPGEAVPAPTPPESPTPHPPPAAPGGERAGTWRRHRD
# [18] = biological target: Inhibitor of nuclear factor kappa-B kinase subunit beta (Homo sapiens) (UniProt O14920); test: Inhibition of human IKKbeta at 1 uM using RBER-CHKtide as substrate in presence of 33P-ATP by ProQinase assay
# [19] = biological target: cAMP-dependent protein kinase catalytic subunit alpha (Homo sapiens) (UniProt P17612); test: Inhibition of human PKACalpha at 1 uM using bio-4xCHKT as substrate in presence of 33P-ATP by ProQinase assay
# [20] = biological target: Discoidin domain-containing receptor 2 (Homo sapiens) (UniProt Q16832); test: Inhibition of human DDR2 at 1 uM using poly(Ala,Glu,Lys,Tyr) as substrate in presence of 33P-ATP by ProQinase assay
# [21] = biological target: Serine/threonine-protein kinase Nek2 (Homo sapiens) (UniProt P51955); test: Inhibition of human NEK2 at 1 uM using RB-CTF as substrate in presence of 33P-ATP by ProQinase assay
# Sequence of Serine/threonine-protein kinase Nek2 (Homo sapiens) (P51955 whole entry): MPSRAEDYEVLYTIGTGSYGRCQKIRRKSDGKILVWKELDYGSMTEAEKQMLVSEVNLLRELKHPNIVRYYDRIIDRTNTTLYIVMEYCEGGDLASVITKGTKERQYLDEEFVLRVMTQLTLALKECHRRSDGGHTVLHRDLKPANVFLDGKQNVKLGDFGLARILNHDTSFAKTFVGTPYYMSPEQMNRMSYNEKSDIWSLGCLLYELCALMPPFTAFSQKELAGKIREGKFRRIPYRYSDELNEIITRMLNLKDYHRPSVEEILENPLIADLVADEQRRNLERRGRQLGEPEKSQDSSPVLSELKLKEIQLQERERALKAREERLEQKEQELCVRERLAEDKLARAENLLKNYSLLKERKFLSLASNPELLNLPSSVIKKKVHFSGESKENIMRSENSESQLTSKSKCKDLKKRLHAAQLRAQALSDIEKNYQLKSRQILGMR
# [22] = biological target: Casein kinase II subunit alpha (Homo sapiens) (UniProt P68400); test: Inhibition of human CK2alpha1 at 1 uM using casein as substrate in presence of 33P-ATP by ProQinase assay
# Sequence of Casein kinase II subunit alpha (Homo sapiens) (P68400 whole entry, looked up): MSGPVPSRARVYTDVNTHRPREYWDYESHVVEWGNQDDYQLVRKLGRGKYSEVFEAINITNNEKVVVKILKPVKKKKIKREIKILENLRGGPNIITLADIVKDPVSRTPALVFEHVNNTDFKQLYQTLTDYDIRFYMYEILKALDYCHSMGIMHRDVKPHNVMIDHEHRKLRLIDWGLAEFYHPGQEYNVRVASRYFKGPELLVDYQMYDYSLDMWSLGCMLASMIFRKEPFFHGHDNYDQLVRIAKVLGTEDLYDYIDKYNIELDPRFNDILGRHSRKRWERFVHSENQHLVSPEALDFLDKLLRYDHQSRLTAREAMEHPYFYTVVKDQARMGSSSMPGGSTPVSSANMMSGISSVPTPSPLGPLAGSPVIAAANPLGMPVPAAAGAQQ
# [23] = biological target: STE20-like serine/threonine-protein kinase (Homo sapiens) (UniProt Q9H2G2); test: Inhibition of human SLK at 1 uM using RB-S6P as substrate in presence of 33P-ATP by ProQinase assay
# Sequence of STE20-like serine/threonine-protein kinase (Homo sapiens) (Q9H2G2 whole entry, looked up, the tested form may be a part): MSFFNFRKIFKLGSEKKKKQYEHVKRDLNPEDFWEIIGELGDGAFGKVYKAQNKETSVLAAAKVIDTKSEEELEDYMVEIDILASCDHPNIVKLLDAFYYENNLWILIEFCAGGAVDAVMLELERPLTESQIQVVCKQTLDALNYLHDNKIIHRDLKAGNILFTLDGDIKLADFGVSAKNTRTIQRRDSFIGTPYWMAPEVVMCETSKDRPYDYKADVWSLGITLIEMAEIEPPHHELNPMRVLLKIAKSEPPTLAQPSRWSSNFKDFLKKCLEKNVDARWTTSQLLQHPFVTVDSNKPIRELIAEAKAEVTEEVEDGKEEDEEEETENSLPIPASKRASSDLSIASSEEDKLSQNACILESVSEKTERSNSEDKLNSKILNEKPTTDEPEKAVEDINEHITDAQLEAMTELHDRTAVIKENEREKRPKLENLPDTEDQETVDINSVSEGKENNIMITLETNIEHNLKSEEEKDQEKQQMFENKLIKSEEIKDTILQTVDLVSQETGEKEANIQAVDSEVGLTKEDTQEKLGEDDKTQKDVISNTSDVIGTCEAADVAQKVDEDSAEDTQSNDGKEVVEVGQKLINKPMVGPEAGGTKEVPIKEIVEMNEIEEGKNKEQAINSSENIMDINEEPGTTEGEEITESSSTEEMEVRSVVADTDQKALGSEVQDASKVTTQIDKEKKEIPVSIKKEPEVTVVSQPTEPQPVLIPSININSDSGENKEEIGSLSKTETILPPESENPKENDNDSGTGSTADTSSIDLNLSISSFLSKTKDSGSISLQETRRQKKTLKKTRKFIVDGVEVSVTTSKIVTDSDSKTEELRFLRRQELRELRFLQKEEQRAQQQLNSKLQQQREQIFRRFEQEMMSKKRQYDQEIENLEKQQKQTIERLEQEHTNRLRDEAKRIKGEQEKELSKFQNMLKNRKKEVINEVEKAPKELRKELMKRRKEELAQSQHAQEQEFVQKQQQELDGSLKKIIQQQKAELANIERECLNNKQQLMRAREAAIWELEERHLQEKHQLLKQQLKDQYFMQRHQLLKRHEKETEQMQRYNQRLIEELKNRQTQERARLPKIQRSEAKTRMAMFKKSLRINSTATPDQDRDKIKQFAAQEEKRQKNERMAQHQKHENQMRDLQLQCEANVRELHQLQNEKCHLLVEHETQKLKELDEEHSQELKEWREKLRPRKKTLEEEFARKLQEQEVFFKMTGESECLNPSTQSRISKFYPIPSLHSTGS
# [24] = biological target: Phosphatidylinositol 3-kinase C2 domain-containing subunit gamma (Homo sapiens) (UniProt O75747); test: Inhibition of PI3KC2gamma (unknown origin) at 1 uM
# [25] = biological target: Phosphatidylinositol 4,5-bisphosphate 3-kinase catalytic subunit gamma isoform (Homo sapiens, UniProt P48736); test: Inhibition of human PIK3CG using PIP2/PS as substrate by ADP-Glo assay
# [26] = biological target: Phosphatidylinositol 4-kinase type 2-beta (Homo sapiens, UniProt Q8TCG2); test: Inhibition of human PI4K2B using PI/PS as substrate by ADP-Glo assay
smiles,measurement,setting,value
CC(C)(O)CNc1ncc(-c2ccnc(Nc3ccnc(Cl)c3)n2)c(CC2CC2)n1,Activity,[1],119%
same,Activity,[2],111%
same,Activity,[3],111%
same,Activity,[4],109%
same,Activity,[5],103%
same,Activity,[6],93%
same,Activity,[7],91%
same,inhibition,[8],inactive
same,inhibition,[9],inactive
same,inhibition,[10],inactive
same,inhibition,[11],inactive
same,inhibition,[12],inactive
same,inhibition,[13],inactive
same,inhibition,[14],inactive
same,inhibition,[15],inactive
same,inhibition,[16],inactive
same,inhibition,[17],inactive
same,inhibition,[18],inactive
same,inhibition,[19],inactive
same,inhibition,[20],inactive
same,inhibition,[21],inactive
same,inhibition,[22],inactive
same,inhibition,[23],inactive
same,inhibition,[24],inactive
same,IC50,[25],> 10 µM
same,IC50,[26],> 10 µM
